The supplement of paper PMC10307832

Columns and labels:
Experiment in all cases: relative viability (nuclei count vs DMSO), 5 days (fraction); higher = more cells survive
Shikonin + Trametinib = compound: CC(C)=CC[C@@H](O)C1=CC(=O)c2c(O)ccc(O)c2C1=O [Shikonin] + CC(=O)Nc1cccc(-n2c(=O)n(C3CC3)c(=O)c3c(Nc4ccc(I)cc4F)n(C)c(=O)c(C)c32)c1 [Trametinib] (partner 0.02 µM)
Outline: (§1)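 Lung cancer cell lines in 1536-well plates got either a single drug or a fixed anchor-drug dose together with five library-drug doses (not always all listed) in √10 steps, by pin tool, on the day after seeding. Nuclei were counted after 5 days, and relative viability is the treated-to-vehicle ratio of nuclei counts. Values are medians of duplicate plates.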

[1] = compound: CC(C)N(CCCNC(=O)Nc1ccc(C(C)(C)C)cc1)C[C@H]1O[C@@H](n2ccc3c(N)ncnc32)[C@H](O)[C@@H]1O
Outline: (§2)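 Following overnight incubation at 37 °C, lung cancer cell lines in 1536-well plates were pinned with five library-drug doses (not always all listed) in √10 steps on vehicle-anchored plates. The cells then spent 5 days without medium change before a combined fix, permeabilisation and Hoechst stain, 4× imaging and MetaXpress nuclear counts. Viability is the treated-to-vehicle ratio of nuclei, taken as the median across plates. Only plates with control CV below 25% and at least one doubling passed.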

Shikonin = compound: CC(C)=CC[C@@H](O)C1=CC(=O)c2c(O)ccc(O)c2C1=O [Shikonin]
Outline: as §2

[2] = compound: CC(C)N(CCCNC(=O)Nc1ccc(C(C)(C)C)cc1)C[C@H]1O[C@@H](n2ccc3c(N)ncnc32)[C@H](O)[C@@H]1O + CC1(C)CCC(c2ccc(Cl)cc2)=C(CN2CCN(c3ccc(C(=O)NS(=O)(=O)c4ccc(N[C@H](CCN5CCOCC5)CSc5ccccc5)c(S(=O)(=O)C(F)(F)F)c4)cc3)CC2)C1 [Navitoclax] (partner 0.5 µM)
Outline: as §1

Cell Line | relative viability (Shikonin + Trametinib; first compound 0.01 µM) | relative viability (Shikonin + Trametinib; first compound 0.3162 µM) | relative viability (Shikonin + Trametinib; first compound 1 µM) | relative viability ([1]; 0.08 µM) | relative viability ([1]; 0.253 µM) | relative viability ([1]; 0.8 µM) | relative viability ([1]; 2.53 µM) | relative viability ([1]; 8 µM) | relative viability (Shikonin; 0.01 µM) | relative viability (Shikonin; 0.1 µM) | relative viability (Shikonin; 0.3162 µM) | relative viability (Shikonin; 1 µM) | relative viability ([2]; first compound 0.08 µM) | relative viability ([2]; first compound 0.253 µM) | relative viability ([2]; first compound 0.8 µM) | relative viability ([2]; first compound 2.53 µM) | relative viability ([2]; first compound 8 µM) | relative viability (Shikonin + Trametinib; first compound 0.1 µM)
NCI-H1648 | 0.422 | 0.464 | 0.503 | 0.756 | 0.935 | 0.68 | 0.784 | 0.823 | 0.911 | 0.686 | 1.07 | 1.08 | – | – | – | – | – | –
SK-MES-1 | 0.595 | 0.575 | 0.71 | 0.996 | 0.942 | 0.99 | 1.02 | 0.939 | 1.04 | 1.08 | 1.1 | 0.962 | 1.12 | 1.26 | 1.28 | 1.18 | 1.19 | 0.57
NCI-H520 | 0.685 | 0.677 | 0.679 | 0.882 | 0.773 | 0.793 | 0.98 | 0.939 | 0.947 | 1.06 | 0.977 | 0.931 | 1.04 | 1.15 | 1.1 | 1.05 | 0.929 | 0.631
HCC-366 | 0.359 | 0.336 | 0.451 | 0.965 | 0.988 | 0.927 | 0.984 | 0.892 | 0.975 | 1.15 | 1.04 | 1.03 | 1.08 | 1.05 | 0.928 | 0.898 | 0.942 | 0.363
201T | 0.724 | 0.75 | 0.707 | 1 | 1.02 | 0.746 | 0.981 | 1.02 | 1 | 1.06 | 1.02 | 1.09 | 1.21 | 1.21 | 1.24 | 1.21 | 1.25 | 0.777
HCC-827 | 0.561 | 0.563 | 0.517 | 1.03 | 1.06 | 0.584 | 1.01 | 0.961 | 1.04 | 1.04 | 1.04 | 1.06 | 0.992 | 0.949 | – | 0.962 | 0.977 | 0.496
NCI-H661 | 0.559 | 0.505 | 0.576 | 1.04 | 0.962 | 1.04 | 1.02 | 1 | 1 | 1.06 | 1.06 | 0.928 | – | – | – | – | – | 0.536
NCI-H2085 | 0.601 | 0.574 | 0.513 | 0.93 | 0.905 | 1.03 | 1.02 | 0.983 | 0.992 | 1.05 | 0.985 | 0.983 | 1.11 | 1.11 | 1.18 | 1.33 | 1.15 | 0.502
NCI-H647 | 0.414 | 0.443 | 0.451 | 0.912 | 0.831 | 0.812 | 0.955 | 0.864 | 1.07 | 1.08 | 1.08 | 0.9 | 0.894 | – | 1.07 | 1.06 | 1.05 | 0.356
SW 1573 | 0.615 | 0.502 | 0.112 | 0.968 | 0.966 | 1.07 | 1.11 | 0.984 | 1.1 | 0.967 | 0.894 | 0.721 | 1.04 | 1.06 | 1.09 | 1.15 | 1.09 | 0.502
A-427 | 0.776 | 0.821 | 0.779 | 0.962 | 0.93 | 1.03 | 0.958 | 0.984 | 1.03 | 1.17 | 1.02 | 1.16 | 0.917 | 0.941 | 0.875 | 0.969 | 0.925 | 0.816
NCI-H460 | 0.159 | 0.131 | 0.135 | 0.982 | 0.953 | 0.935 | 0.996 | 1.02 | 1.06 | 1.07 | 1.07 | 1.05 | 1.01 | 1.16 | 1.12 | 1.27 | 0.9 | 0.164
NCI-H1703 | – | – | – | 0.913 | 1.04 | 0.803 | 1.03 | 0.782 | 0.994 | 1.21 | 0.864 | 0.646 | 1.13 | 1.14 | 1.61 | 1.27 | 0.89 | –
NCI-H1792 | 0.476 | 0.424 | 0.553 | 1.06 | – | 0.812 | 0.912 | 0.99 | 0.987 | 0.991 | 0.922 | 1.22 | 0.634 | 0.589 | 0.623 | 0.591 | 0.571 | 0.327
Calu-6 | – | – | – | 1 | 1.03 | 0.996 | 1.04 | 0.966 | 1.05 | 1.11 | 1.04 | 0.93 | 0.887 | 0.87 | 0.848 | 0.902 | 0.841 | –
SK-LU-1 | 0.46 | 0.513 | 0.449 | 1.01 | 1.06 | 0.989 | 1.1 | 0.941 | 1.05 | 1.05 | 1.21 | 1.03 | 0.688 | 0.762 | 0.86 | 1.06 | 0.557 | 0.485
EMC-BAC-2 | 0.863 | 1 | 0.851 | 0.943 | 0.928 | 1.03 | 0.905 | 0.889 | 0.97 | 0.997 | 1.11 | 1.13 | 1.14 | 1.15 | 1.13 | 1.14 | 1.08 | 0.947
LK-2 | 0.884 | 0.799 | 0.732 | 0.886 | 0.792 | 1.04 | 0.966 | 0.974 | 1.1 | 0.955 | 0.998 | 1.03 | 0.848 | 0.775 | 0.929 | 0.768 | 0.711 | 0.935

Cell Line | relative viability (Shikonin + Trametinib; first compound 0.01 µM) | relative viability (Shikonin + Trametinib; first compound 0.3162 µM) | relative viability (Shikonin + Trametinib; first compound 1 µM) | relative viability ([1]; 0.08 µM) | relative viability ([1]; 0.253 µM) | relative viability ([1]; 0.8 µM) | relative viability ([1]; 2.53 µM) | relative viability ([1]; 8 µM) | relative viability (Shikonin; 0.01 µM) | relative viability (Shikonin; 0.1 µM) | relative viability (Shikonin; 0.3162 µM) | relative viability (Shikonin; 1 µM) | relative viability ([2]; first compound 0.08 µM) | relative viability ([2]; first compound 0.253 µM) | relative viability ([2]; first compound 0.8 µM) | relative viability ([2]; first compound 2.53 µM) | relative viability ([2]; first compound 8 µM) | relative viability (Shikonin + Trametinib; first compound 0.1 µM)
NCI-H2228 | 0.342 | 0.536 | 0.494 | 0.925 | 1 | 0.903 | 0.949 | 1.09 | 1.07 | 0.991 | 1.12 | 1.17 | 1.1 | – | 0.916 | 1.32 | 0.711 | 0.441
NCI-H322M | 0.498 | 0.513 | 0.564 | 0.929 | 0.893 | 0.93 | 0.918 | 0.975 | 0.924 | 0.917 | 0.921 | 1.06 | 1.16 | 1.09 | 1.19 | 1.2 | 1.16 | 0.459
NCI-H1975 | 0.275 | 0.33 | 0.321 | 0.844 | 0.837 | 0.594 | 0.843 | 0.743 | 0.956 | 0.946 | 0.955 | 1.05 | 0.978 | 1.18 | 1.17 | 0.923 | 0.835 | 0.367
NCI-H1944 | 0.382 | 0.415 | 0.469 | 0.979 | 0.878 | 0.762 | 0.976 | 0.936 | 0.993 | 1.06 | 1.12 | 0.986 | 0.982 | 0.983 | 0.988 | 1.05 | 1.02 | 0.431
NCI-H1299 | – | – | – | 0.979 | 1.01 | 0.955 | 0.999 | 0.963 | 1.05 | 1.06 | 1.01 | 0.973 | 1.07 | 1.05 | 1.02 | 1.06 | 1.02 | –
LCLC-103H | 0.662 | 0.663 | 0.698 | 0.946 | 0.966 | 0.857 | 0.839 | 1.01 | 0.946 | 1.2 | 1.05 | 1.08 | – | – | – | – | – | 0.683
ABC-1 | – | – | – | 0.859 | 0.797 | – | 1.05 | 1.01 | 0.921 | 1.13 | 0.91 | 0.764 | – | – | – | – | – | –
SW 900 | 0.809 | 0.969 | 0.741 | 0.787 | 0.705 | – | 0.886 | 0.812 | 0.746 | 0.918 | 0.709 | 0.851 | – | – | – | – | – | 0.934
NCI-H650 | 0.988 | 0.996 | 0.982 | 0.831 | 0.902 | 1.06 | 0.775 | 0.882 | 1.08 | 0.937 | 0.999 | 0.913 | – | – | – | – | – | 1.19
NCI-H1563 | – | – | – | 0.918 | 0.849 | 0.944 | 1.03 | 0.957 | 0.944 | 0.954 | 1.01 | 0.959 | – | – | – | – | – | –
A549 | – | – | – | 0.93 | 0.877 | 1.02 | 0.94 | 0.933 | 1.02 | 0.956 | 1.07 | 0.997 | 1.17 | 1.22 | 1.25 | 1.18 | 1.14 | –
NCI-H2342 | 0.902 | 0.88 | 0.843 | 1.01 | 1.08 | 0.815 | 1.01 | 1.05 | 0.941 | 0.943 | 1.11 | 0.991 | – | – | – | – | – | 0.686
NCI-H1623 | – | – | – | 0.947 | 0.968 | 0.934 | 0.911 | 1.01 | 0.934 | 0.817 | 1.08 | 1.07 | – | – | – | – | – | –
NCI-H522 | 0.747 | 0.871 | 0.646 | 0.868 | 0.898 | 0.885 | 0.99 | 0.997 | 0.962 | 1.09 | 0.955 | 0.956 | – | – | – | – | – | 0.747
IA-LM | – | – | – | 1.02 | 0.879 | 1.02 | 0.963 | 0.84 | 1.13 | 0.875 | 1.05 | 0.859 | 0.693 | 0.788 | 0.951 | 0.72 | 0.586 | –
NCI-H358 | 0.124 | 0.121 | 0.126 | 0.856 | 0.873 | 1.04 | 0.924 | 0.889 | 0.978 | 0.862 | 0.967 | 0.979 | – | – | – | – | – | 0.124
EBC-1 | – | – | – | 0.926 | 0.96 | 0.874 | 0.941 | 0.808 | 1.06 | 0.997 | 1.05 | 0.962 | 0.406 | 0.387 | 0.383 | 0.363 | 0.388 | –
